Assay results published in patent publication US20060122276A1, “Agent for inhibiting membrane virus reproduction, method for the production thereof, pharmaceutical composition and method for inhibiting viral infections” (priority 2003, published 2006).
Read-outs that look alike come from different tables or passages of the source.

How the values were obtained:
[1] = for Solubility in o-Dichlorobenzene: solvent o-dichlorobenzene
HIV-1 = conditions: for CPE/syncytia, % / Viability of cells, %: HIV-1; for CPE/syncytia, %: Table 9; for Viability of cells, %: Table 9 (virus control 42)
Method: Cells Reinoculated humans lymphoblastoid cells MT-4 were used. […] The viability of the cells was determined from the color of a 0.4% solution of trypan blue.
Retrovir (azidothymidin) produced by GlaxoWellcome (Great Britain) was used as positive control.
The Antiviral activity of the preparations was investigated on a model of lymphoblastoid cells in a plastic 24-cell plate. The virus dose was 100 TCD50 (50% tissue cytopathic dose). […] The activity of the preparation was determined from the inhibition of the virus-induced cytopathic action (CPA) in the cell cultures and the virus antigen level in the culture fluid by immunoenzymatic analysis.

[2] = test system: herpes simplex virus (HSV-1); assay: Antiviral activity with respect to HSV-1 in VERO cells; format: cell-based, type 1, strain L2; conditions: HSV-1, 10 TCD50/ml, VERO; for Degree of protection from CE virus, % A: substance contact time with cells 24 hrs; for Degree of protection from CE virus, % B: substance contact time with cells 48 hrs
From the text: Herpes simplex virus, type 1, strain L2, replicated in VERO cells was used in the investigation.
[…] acyclovir was used as positive control

[3] = test system: lymphoblastoid human cells MT-4; assay: Cytotoxicity on non-infected human lymphoblastoid cells; format: cell-based; conditions: cytotoxicity
[4] = 300 μg/ml, human lymphoblastoid cells

Row | Molecule | Solubility in o-Dichlorobenzene [1] | Antiviral activity with respect to HIV-1 compared with fullerene-polyamino-caproic acid (HIV-1) | CPE/syncytia, % (HIV-1; 0.1 μg/ml) [%] | Viability of cells, % (HIV-1; 0.1 μg/ml) [%] | CPE/syncytia, % (HIV-1; 0.5 μg/ml) [%] | Viability of cells, % (HIV-1; 0.5 μg/ml) [%] | CPE/syncytia, % (HIV-1; 1.0 μg/ml) [%] | Viability of cells, % (HIV-1; 1.0 μg/ml) [%] | CPE/syncytia, % (HIV-1; 10.0 μg/ml) [%] | Viability of cells, % (HIV-1; 10.0 μg/ml) [%] | Degree of protection from CE virus, % A ([2]; 10.0 μg/ml) [%] | Degree of protection from CE virus, % B ([2]; 10.0 μg/ml) [%] | other results
1 | c12c3c4c5c1c1c6c7c2c2c8c3c3c9c4c4c%10c5c5c1c1c6c6c%11c7c2c2c7c8c3c3c8c9c4c4c9c%10c5c5c1c1c6c6c%11c2c2c7c3c3c8c4c4c9c5c1c1c6c2c3c41 [Fullerene] | Yes | – | – | – | – | – | – | – | – | – | – | – | Solubility in Glacial acetic acid ([1]; solvent glacial acetic acid): No; Solubility in Toluene ([1]; solvent toluene): Yes; Solubility in Water ([1]; solvent water): No
2 | sodium salt of fullerene-polyamino-butyric acid [ABA] | No | lower antiviral activity | 25 | 52 | 15 | 65 | 10 | 71 | 0 | 72 | 33.3 | 33.3 | Degree of protection from CE virus, % A ([2]; 0.1 μg/ml): 0.0%; Degree of protection from CE virus, % B ([2]; 0.1 μg/ml): 33.3%; Degree of protection from CE virus, % A ([2]; 25.0 μg/ml): 100%; Degree of protection from CE virus, % B ([2]; 25.0 μg/ml): 100%; Degree of protection from CE virus, % A ([2]; 50.0 μg/ml): 100%; Degree of protection from CE virus, % B ([2]; 50.0 μg/ml): 100%
3 | sodium salt of fullerene-polyamino-octanoic acid [AOA] | – | lower antiviral activity | 25 | 50 | 25 | 53 | 25 | 57 | 0 | 60 | 100 | 100 | Viability of cells, % ([3]; 100 μg/ml, human lymphoblastoid cells (cell control 95)): 79%; Number of cells × 10^3/ml ([3]; 100 μg/ml, human lymphoblastoid cells (cell control 250)): 150 × 10^3/ml; Number of cells × 10^3/ml [3, 4]: 150 × 10^3/ml; Viability of cells, % [3, 4]: 82%; Degree of protection from CE virus, % A ([2]; 1.0 μg/ml): 33.3%; Degree of protection from CE virus, % B ([2]; 1.0 μg/ml): 100%
